Laboratory results published in patent US4568690A, “1-Methyl-5-p-methylbenzoylpyrrole-2-acetamidoacetanilides with antiinflammatory, analgesic, antipyretic and anti-platelet aggregant activity” (priority 1983, dated 1986).
Like-named read-outs stand apart in the source and are kept apart here.

Legend:
carragenin-induced edema [1] = conditions: background statement, prior ester; cited from earlier work
healthy animals = conditions: background statement, prior ester; cited from earlier work
[2] = test system: hyperthermia induced by dry purified beer yeast; assay: antipyretic activity, beer yeast-induced hyperthermia; assay type: in vivo, Wistar strain male albino rats
Experimental: (§1) Preparations of the compound were administered orally and/or parenterally in a suspension in 0.59% carboxymethylcellulose in pH neutral physiological saline.
This effect was evaluated by inducing hyperthermia in Wistar strain male albino rats with an average weight of 250±10 g, injecting them intraperitoneally with a 10% suspension of dry purified beer yeast (Carlo Erba) in a volume of 10 ml/Kg of body weight, according to the method of S. Wong et al. (J. Pharmac. Exp. Ther., 185 (1), 127 (1973)).

in vivo [3] = conditions: mouse
mouse = conditions: in vivo
[4] = test system: p-phenylquinone-induced writhing; assay: p-phenylquinone-induced writhing test (analgesic activity); assay type: in vivo; conditions: an hour after administration
Experimental: as §1
The determination was made an hour after administration of the product. The inhibitory effect on abdominal contractions induced by phenyl-p-quinone was calculated as follows: [formula]
Table IV reports the doses, the administration routes and their effectiveness expressed as % protection.

gastric mucosa = assay: gastric tolerance (ulcerogenic activity); conditions: orally, four consecutive days; for Incidence % / 10: groups of 10 animals; for Mean number severity: severity scale 0-5
Experimental: This was studied by testing ulcerogenic activity in male Wistar rats weighing an average of 180 g, using groups of 10 animals each. Three doses of each substance were used, and one group of animals was treated with vehicle only, in a volume of 10 ml/g body weight. Each dose was administered orally for four consecutive days, and the rats were killed on the fifth day and autopsied. The ulcerogenic effect was evaluated on the following scale:
(1) each hemorrhage point >1 mm was evaluated as 1 lesion
(2) the hemorrhage points <1 were counted as follows:
(b) from 1 to 19 2 lesions
(c) from 1 to 29 3 lesions
(2) gastric mucosa irritation
(3) hemorrhage points <1 mm
(4) hemorrhage points from 1 to 3 mm
(5) hemorrhage points >3 mm
This scale was used to calculate the following index of gastric damage: [formula]

carragenin-induced edema [5] = assay: carragenin-induced edema test (antinflammatory activity); assay type: in vivo, rats
Experimental: as §1
This effect was evaluated with an experimental model reproducing actue inflammation in rats: the carragenin-induced edema test was used, according to the method of C. A. Winter (G. Pharmac. Exp. Ther., 141, 369 (1963)). Table III reports the compounds tested, their concentrations, administration routes and relative percent edema inhibition.

[6] = test system: platelet aggregation (ADP-induced); assay: in vitro anti-platelet aggregant activity (Born's method, ADP); assay type: cell-based, rat; conditions: Rattus norvegicus, Platelet, ADP 7.08 μmol/l, read-out: Inhibition % (platelet aggregation)
Experimental: This activity was studied in vitro following Born's method (G. W. R. Born, Nature, 194, 937 (1962)) and inducing platelet aggregation with ADP. […] For the aggregation test, 0.2 ml of platelet rich plasma was mixed with a NaCl solution (0.9%) to which the test substance was added up to a final volume of 0.6 ml. Incubation was fixed at 3 minutes at 27° C. After aggregation was induced with ADP, the course of the aggregation was monitored continuously with an Elvi 840 Aggregometer (Elvi Logos--Milan). The antiaggregant effects were determined by the difference in the light transmission of the sample with respect to that of the ADP control. The test compound was compared with aspirin, which has known antiplatelet aggregant activity (H. J. Weiss et al., J. Clin. Inv., 47, 2169 (1968); Platelet Aggregation and Drugs, edited by L. Caprino and E. C. Rossi, page 235, Academic Press (London), 1974).
Table VI reports the inhibition of platelet aggregation with various doses of the compounds tested at a constant ADP concentration.

in vivo [7] = conditions: rat

COc1ccccc1OC(=O)CNC(=O)Cc1ccc(C(=O)c2ccc(C)cc2)n1C [Compound 4, 1-methyl-5-p-methylbenzoylpyrrole-2-acetamidoacetate of o-methoxyphenol]
antinflammatory, analgesic, antipyretic, antisecretive and cough suppressing activity versus Tolmetin (in words) (carragenin-induced edema [1]): greater than that of Tolmetin
duration of action versus Tolmetin (in words) (carragenin-induced edema [1]): longer lasting action
toxicity versus Tolmetin (in words) (healthy animals): lower toxicity

COc1ccc(OC)c(NC(=O)CNC(=O)Cc2ccc(C(=O)c3ccc(C)cc3)n2C)c1 [Compound 1g]
Temperature decrease % ([2]; i.p., 50 mg/kg, 1 h): 26.0%
Temperature decrease % ([2]; i.p., 50 mg/kg, 2 h): 27.0%
Temperature decrease % ([2]; i.p., 50 mg/kg, 3 h): 26.0%
Temperature decrease % ([2]; i.p., 75 mg/kg, 1 h): 32.1%
Temperature decrease % ([2]; i.p., 75 mg/kg, 2 h): 34.5%
Temperature decrease % ([2]; i.p., 75 mg/kg, 3 h): 40.0%
Temperature decrease % ([2]; i.p., 100 mg/kg, 1 h): 39.1%
Temperature decrease % ([2]; i.p., 100 mg/kg, 2 h): 46.0%
Temperature decrease % ([2]; i.p., 100 mg/kg, 3 h): 41.0%
Temperature decrease % ([2]; os, 50 mg/kg, 1 h): 17.1%
Temperature decrease % ([2]; os, 50 mg/kg, 6 h): 27.1%
Temperature decrease % ([2]; os, 50 mg/kg, 24 h): 29.1%
Temperature decrease % ([2]; os, 75 mg/kg, 1 h): 19.6%
Temperature decrease % ([2]; os, 75 mg/kg, 6 h): 30.1%
Temperature decrease % ([2]; os, 75 mg/kg, 24 h): 43.1%
Temperature decrease % ([2]; os, 100 mg/kg, 1 h): 23.1%
Temperature decrease % ([2]; os, 100 mg/kg, 6 h): 33.0%
Temperature decrease % ([2]; os, 100 mg/kg, 24 h): 42.1%
LD50 (in vivo [3]; ip): 1430 mg/kg
LD50 (in vivo [3]; po): > 1500 mg/kg
DL50 (LD50) (mouse; ip): 1200 mg/kg
DL50 (LD50) (mouse; po): 1470 mg/kg
Protection % ([4]; i.p., 5 mg/kg): 23.0%
Protection % ([4]; i.p., 10 mg/kg): 56.9%
Protection % ([4]; i.p., 20 mg/kg): 74.2%
Protection % ([4]; os, 5 mg/kg): 20.1%
Protection % ([4]; os, 10 mg/kg): 50.3%
Protection % ([4]; os, 20 mg/kg): 76.0%
Index gastric damage (gastric mucosa; 50 mg/kg): 8
Index gastric damage, signed figure (untitled; difference from Carrier index 8) (gastric mucosa; 50 mg/kg): +0
Mean number lesions (gastric mucosa; 50 mg/kg): 1
Incidence % / 10 (gastric mucosa; 50 mg/kg): 6 %/10
Mean number severity (gastric mucosa; 50 mg/kg): 1
Index gastric damage (gastric mucosa; 100 mg/kg): 11
Index gastric damage, signed figure (untitled; difference from Carrier index 8) (gastric mucosa; 100 mg/kg): +3
Mean number lesions (gastric mucosa; 100 mg/kg): 2
Incidence % / 10 (gastric mucosa; 100 mg/kg): 7 %/10
Mean number severity (gastric mucosa; 100 mg/kg): 2
Index gastric damage (gastric mucosa; 200 mg/kg): 14
Index gastric damage, signed figure (untitled; difference from Carrier index 8) (gastric mucosa; 200 mg/kg): +6
Mean number lesions (gastric mucosa; 200 mg/kg): 3
Incidence % / 10 (gastric mucosa; 200 mg/kg): 9 %/10
Mean number severity (gastric mucosa; 200 mg/kg): 2
Oedema inhibition % (carragenin-induced edema [5]; i.p., 10 mg/kg, 3 h): 35.6%
Oedema inhibition % (carragenin-induced edema [5]; i.p., 10 mg/kg, 6 h): 37.0%
Oedema inhibition % (carragenin-induced edema [5]; i.p., 10 mg/kg, 24 h): 0.0%
Oedema inhibition % (carragenin-induced edema [5]; i.p., 50 mg/kg, 3 h): 50.1%
Oedema inhibition % (carragenin-induced edema [5]; i.p., 50 mg/kg, 6 h): 50.0%
Oedema inhibition % (carragenin-induced edema [5]; i.p., 50 mg/kg, 24 h): 6.1%
Oedema inhibition % (carragenin-induced edema [5]; i.p., 100 mg/kg, 3 h): 71.0%
Oedema inhibition % (carragenin-induced edema [5]; i.p., 100 mg/kg, 6 h): 71.5%
Oedema inhibition % (carragenin-induced edema [5]; i.p., 100 mg/kg, 24 h): 22.9%
Oedema inhibition % (carragenin-induced edema [5]; os, 10 mg/kg, 3 h): 30.4%
Oedema inhibition % (carragenin-induced edema [5]; os, 10 mg/kg, 6 h): 37.9%
Oedema inhibition % (carragenin-induced edema [5]; os, 10 mg/kg, 24 h): 1.2%
Oedema inhibition % (carragenin-induced edema [5]; os, 50 mg/kg, 3 h): 51.4%
Oedema inhibition % (carragenin-induced edema [5]; os, 50 mg/kg, 6 h): 49.0%
Oedema inhibition % (carragenin-induced edema [5]; os, 50 mg/kg, 24 h): 7.9%
Oedema inhibition % (carragenin-induced edema [5]; os, 100 mg/kg, 3 h): 72.3%
Oedema inhibition % (carragenin-induced edema [5]; os, 100 mg/kg, 6 h): 70.0%
Oedema inhibition % (carragenin-induced edema [5]; os, 100 mg/kg, 24 h): 25.1%

Cc1ccc(C(=O)c2ccc(CC(=O)NCC(=O)Nc3cccc(Cl)c3)n2C)cc1 [Compound 1b]
Temperature decrease % ([2]; i.p., 50 mg/kg, 1 h): 16.0%
Temperature decrease % ([2]; i.p., 50 mg/kg, 2 h): 19.3%
Temperature decrease % ([2]; i.p., 50 mg/kg, 3 h): 33.0%
Temperature decrease % ([2]; i.p., 75 mg/kg, 1 h): 26.0%
Temperature decrease % ([2]; i.p., 75 mg/kg, 2 h): 36.1%
Temperature decrease % ([2]; i.p., 75 mg/kg, 3 h): 40.0%
Temperature decrease % ([2]; i.p., 100 mg/kg, 1 h): 39.1%
Temperature decrease % ([2]; i.p., 100 mg/kg, 2 h): 40.0%
Temperature decrease % ([2]; i.p., 100 mg/kg, 3 h): 30.5%
Temperature decrease % ([2]; os, 50 mg/kg, 1 h): 19.0%
Temperature decrease % ([2]; os, 50 mg/kg, 6 h): 19.5%
Temperature decrease % ([2]; os, 50 mg/kg, 24 h): 29.8%
Temperature decrease % ([2]; os, 75 mg/kg, 1 h): 20.0%
Temperature decrease % ([2]; os, 75 mg/kg, 6 h): 30.0%
Temperature decrease % ([2]; os, 75 mg/kg, 24 h): 40.1%
Temperature decrease % ([2]; os, 100 mg/kg, 1 h): 30.0%
Temperature decrease % ([2]; os, 100 mg/kg, 6 h): 33.1%
Temperature decrease % ([2]; os, 100 mg/kg, 24 h): 31.2%
inhibition at 1 µg/mL ([6]; 1 γ/ml): 25%
inhibition at 5 µg/mL ([6]; 5 γ/ml): 100%
inhibition at 10 µg/mL ([6]; 10 γ/ml): 100%
LD50 (in vivo [3]; ip): 1370 mg/kg
LD50 (in vivo [3]; po): > 1500 mg/kg
LD50 (in vivo [7]; ip): 1200 mg/kg
LD50 (in vivo [7]; po): > 1420 mg/kg
Protection % ([4]; i.p., 5 mg/kg): 18.7%
Protection % ([4]; i.p., 10 mg/kg): 42.3%
Protection % ([4]; i.p., 20 mg/kg): 69.5%
Protection % ([4]; os, 5 mg/kg): 16.1%
Protection % ([4]; os, 10 mg/kg): 36.2%
Protection % ([4]; os, 20 mg/kg): 69.1%
Index gastric damage (gastric mucosa; 50 mg/kg): 8
Index gastric damage, signed figure (untitled; difference from Carrier index 8) (gastric mucosa; 50 mg/kg): +0
Mean number lesions (gastric mucosa; 50 mg/kg): 1
Incidence % / 10 (gastric mucosa; 50 mg/kg): 5 %/10
Mean number severity (gastric mucosa; 50 mg/kg): 2
Index gastric damage (gastric mucosa; 100 mg/kg): 11
Index gastric damage, signed figure (untitled; difference from Carrier index 8) (gastric mucosa; 100 mg/kg): +3
Mean number lesions (gastric mucosa; 100 mg/kg): 2
Incidence % / 10 (gastric mucosa; 100 mg/kg): 7 %/10
Mean number severity (gastric mucosa; 100 mg/kg): 2
Index gastric damage (gastric mucosa; 200 mg/kg): 14
Index gastric damage, signed figure (untitled; difference from Carrier index 8) (gastric mucosa; 200 mg/kg): +6
Mean number lesions (gastric mucosa; 200 mg/kg): 3
Incidence % / 10 (gastric mucosa; 200 mg/kg): 8 %/10
Mean number severity (gastric mucosa; 200 mg/kg): 3
Oedema inhibition % (carragenin-induced edema [5]; i.p., 10 mg/kg, 3 h): 30.1%
Oedema inhibition % (carragenin-induced edema [5]; i.p., 10 mg/kg, 6 h): 29.0%
Oedema inhibition % (carragenin-induced edema [5]; i.p., 10 mg/kg, 24 h): 0.0%
Oedema inhibition % (carragenin-induced edema [5]; i.p., 50 mg/kg, 3 h): 49.2%
Oedema inhibition % (carragenin-induced edema [5]; i.p., 50 mg/kg, 6 h): 43.5%
Oedema inhibition % (carragenin-induced edema [5]; i.p., 50 mg/kg, 24 h): 2.3%
Oedema inhibition % (carragenin-induced edema [5]; i.p., 100 mg/kg, 3 h): 65.4%
Oedema inhibition % (carragenin-induced edema [5]; i.p., 100 mg/kg, 6 h): 62.0%
Oedema inhibition % (carragenin-induced edema [5]; i.p., 100 mg/kg, 24 h): 16.4%
Oedema inhibition % (carragenin-induced edema [5]; os, 10 mg/kg, 3 h): 29.8%
Oedema inhibition % (carragenin-induced edema [5]; os, 10 mg/kg, 6 h): 22.3%
Oedema inhibition % (carragenin-induced edema [5]; os, 10 mg/kg, 24 h): 0.0%
Oedema inhibition % (carragenin-induced edema [5]; os, 50 mg/kg, 3 h): 47.3%
Oedema inhibition % (carragenin-induced edema [5]; os, 50 mg/kg, 6 h): 44.1%
Oedema inhibition % (carragenin-induced edema [5]; os, 50 mg/kg, 24 h): 0.0%
Oedema inhibition % (carragenin-induced edema [5]; os, 100 mg/kg, 3 h): 61.9%
Oedema inhibition % (carragenin-induced edema [5]; os, 100 mg/kg, 6 h): 59.8%
Oedema inhibition % (carragenin-induced edema [5]; os, 100 mg/kg, 24 h): 15.3%
